Results from patent publication US20250346550A1, “METHODS OF MODULATING ENDONUCLEASE G USING RESVERATROL AND ITS DERIVATIVES” (THE REGENTS OF THE UNIVERSITY OF COLORADO A BODY CORPORATE, priority 2022, published 2025).

Assays:
CPS-6 = target: T1, CPS-6 (Caenorhabditis elegans, UniProt Q95NM6); assay: plasmid DNA cleavage assay; type: biochemical, C. elegans; conditions: 20 μM; for effect on CPS-6 nuclease activity: 10 ng CPS-6, pPD49.78 plasmid DNA
T1 construct: Recombinant CPS-6 protein was incubated with the supercoiled plasmid DNA substrate
T1 sequence (Q95NM6 1-308): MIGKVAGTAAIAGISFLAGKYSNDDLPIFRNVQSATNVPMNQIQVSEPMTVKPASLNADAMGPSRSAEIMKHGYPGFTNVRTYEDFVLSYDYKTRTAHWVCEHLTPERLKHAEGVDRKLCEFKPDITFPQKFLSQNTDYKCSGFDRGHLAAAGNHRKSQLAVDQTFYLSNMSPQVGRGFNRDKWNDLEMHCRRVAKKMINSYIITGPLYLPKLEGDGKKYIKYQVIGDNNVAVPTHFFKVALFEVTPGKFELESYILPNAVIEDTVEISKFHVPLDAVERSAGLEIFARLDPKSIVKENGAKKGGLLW
Protocol: FIG. 3. Resveratrol isomers target CPS-6 to affect PME. a, b, Both cis-resveratrol and trans-resveratrol act paternally to affect PME. The numbers of MTR-stained paternal mitochondrial clusters in embryos at 64-cell (a) or 16-cell (b) stage from the indicated crosses were scored. N2 males or hermaphrodites were pretreated with 0.25% ethanol (Mock), 50 μM cis-resveratrol (a), or 50 μM trans-resveratrol (b) as indicated before mating. c-g, Quantification of MTR-stained paternal mitochondrial clusters in 64-cell embryos from the indicated crosses treated with 0.25% ethanol (Mock), 50 μM cis-resveratrol, and 50 μM trans-resveratrol, respectively. Alleles used are lgg-1(bp523), cps-6(tm3222) and rad-23(tm2595). Data are mean s.e.m; n≥15 embryos (a) and n≥20 embryos (b, c-g) were scored in each experiment. ***P<0.001; n.s., not significant, two-sided, unpaired t-test. h, Resveratrol isomers enhance or inhibit the nuclease activity of CPS-6 in a plasmid DNA cleavage assay. 10 ng of CPS-6 were incubated with 0.25% ethanol (Mock), 20 μM cis-resveratrol, or 20 μM trans-resveratrol in dark at 4° C. for 1.5 hours, before 1 μg of the pPD49.78 plasmid DNA were added to the reactions. After further incubation at 30° C. for 1 hour, the reactions were resolved on a 1% agarose gel. Three different forms of plasmid DNA are indicated.
FIG. 11. Stabilized trans-resveratrol enhances the nuclease activity of CPS-6 in a plasmid DNA cleavage assay and is resistant to UV irradiation. 10 ng of CPS-6 were incubated with 0.25% ethanol (Mock), 20 μM locked trans-resveratrol with or without UV irradiation, 20 μM trans-resveratrol with or without UV irradiation, and 20 μM cis-resveratrol with or without UV irradiation, respectively, in dark at 4° C. for 1.5 hours, before 1 μg of the pPD49.78 plasmid DNA were added to the reactions. After further incubation at 30° C. for 1 hour, the reactions were resolved on a 1% agarose gel. Three different forms of plasmid DNA are indicated. Resveratrol isomers or derivative were subjected to UV irradiation for 3 hours.
Because resveratrol is an antioxidant and the endonuclease activity of CPS-6 is regulated by redox conditions both in vitro and in vivo, we investigated the possibility that resveratrol isomers could directly affect the nuclease activity of CPS-6 using a plasmid DNA cleavage assay. Recombinant CPS-6 protein was incubated with the supercoiled plasmid DNA substrate in the presence or absence of 20 μM trans-resveratrol or cis-resveratrol and the reactions were resolved by an agarose gel. […] Since the nuclease activity of CPS-6 is required for PME, these in vitro results are consistent with the in vivo observations that trans-resveratrol enhances and cis-resveratrol inhibits PME.

[1] = test system: LGG-1 autophagosome enclosure of MTR-stained paternal mitochondria in zygotes; assay: autophagosome formation on paternal mitochondria (SIM, anti-LGG-1); type: in vivo, C. elegans; conditions: males pretreated with 50 μM; for isolated paternal mitochondria: mock 16%; for paternal mitochondria fully enclosed by autophagosomes: mock 49%
Protocol: FIG. 4. Resveratrol isomers affect autophagosome formation on paternal mitochondria. a-f, Analysis of enclosure of MTR-stained paternal mitochondria by LGG-1 autophagosomes. Zygotes from the indicated crosses with MTR-stained N2 males pretreated with 0.25% ethanol (Mock)(a,b), 50 μM trans-resveratrol (c,d), or 50 μM cis-resveratrol (e,f) were labeled with an antibody to LGG-1. Images were acquired with a Nikon SIM microscope. Dashed rectangles highlight the areas enlarged and shown below ([…]). Scale bars, 2 μm (a,c,e), 0.5 μm (b,d,f). g, Quantification of four types of paternal mitochondria in zygotes that were fully enclosed, partially enclosed, and not enclosed (isolated) by the LGG-1 autophagosomes and that had initiating phagophore, respectively. The number of MTR-stained paternal mitochondria scored in each experiment was shown below the pie chart.
CPS-6 plays a key role in promoting internal breakdown of paternal mitochondria and rapid autophagosome formation on damaged paternal mitochondria following fertilization, which leads to their subsequent degradation by autophagy. We tested if resveratrol isomers affect autophagosome formation on paternal mitochondria using superresolution structured illumination microscopy (SIM). In zygotes from mating of MTR-stained and mock-treated N2 males with unstained N2 hermaphrodites, close to one half (49%) of MTR-stained paternal mitochondria were fully enclosed by autophagosomes labeled by anti-LGG-1 monoclonal antibody (FIG. 4a, b and g). The remaining paternal mitochondria either were partially enclosed by autophagosomes (23%), or had adjacent autophagosome membrane that could initiate the elongation process along the paternal mitochondrion (12%; initiating phagophore), or were isolated (16%) with no nearby autophagosome or phagophore (FIG. 4a, b and g). In zygotes from mating of MTR-stained and trans-resveratrol-treated N2 males with N2 hermaphrodites, autophagosome formation on paternal mitochondria increased dramatically, with 75% of paternal mitochondria fully enclosed and 12% of paternal mitochondria partially enclosed by autophagosomes (FIG. 4c, d and g). […] On the other hand, in zygotes from mating between unstained N2 hermaphrodites and MTR-stained and cis-resveratrol-treated N2 males, autophagosome formation on paternal mitochondria decreased substantially.

[2] = test system: PME defect of lgg-1(bp523) embryos (autophagy pathway); assay: PME microscopy assay in lgg-1(bp523) crosses; type: in vivo, C. elegans; conditions: 50 μM, 64-cell embryos (FIG. 3c)
Text: The numbers of MTR-stained paternal mitochondrial clusters were scored as in FIG. 1a. cps-6(tm3222) and lgg-1(bp523) alleles were used in the assays. Data are mean±s.e.m. n=20 embryos (b) and 15 embryos (c) in each experiment. **P<0.01; ***P<0.001; n.s., not significant, two-sided, unpaired t-test.
To investigate how these six compounds might affect PME, the present inventors performed chemical genetic analysis to analyze the PME pathways that might be affected by the compounds. The present inventors first examined whether they might affect the paternal PME pathway mediated by the mitochondrial endonuclease CPS-6, whose activity is inhibited by oxidation and protected by reducing agents.

| SMILES | effect on CPS-6 nuclease activity (CPS-6) | effect on CPS-6 nuclease activity after UV irradiation of the compound (CPS-6; compound UV irradiated for 3 hours (FIG. 11)) | isolated paternal mitochondria [1] [%] | paternal mitochondria partially enclosed by autophagosomes ([1]; mock 23%) [%] | paternal mitochondria fully enclosed by autophagosomes [1] [%] | effect on PME defects of the lgg-1(bp523) mutant [2] |
| --- | --- | --- | --- | --- | --- | --- |
| Oc1ccc(/C=C/c2cc(O)cc(O)c2)cc1 [trans-resveratrol, 3,5,4′-trihydroxy-trans-stilbene] | enhances the endonuclease activity of CPS-6 | lost its activity to enhance the nuclease activity of CPS-6 | 7 | 12 | 75 | suppressed |
| Oc1ccc(/C=C\c2cc(O)cc(O)c2)cc1 [cis-resveratrol] | inhibits CPS-6 nuclease activity | – | 31 | – | 35 | enhanced |
